Laboratory results from PubChem BioAssay AID1963858 (Molecular Pharmacology Branch, DTP, NCI, 2024).

Test system: HOP-62 multicell spheroids with HUVEC/MSC, viability
Test: Anticancer human tumor HOP-62 cell line growth inhibition [KRAS2];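 also: viability read after a week of compound exposure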;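 as to viability, T/C: 100% = DMSO vehicle-treated spheroids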
Settings: for IC50: curve of first compound; for viability, T/C: stronger effect = lower value
Description: Multicellular complex tumor spheroid response to RAS pathway inhibitors in combination with a targeted agents in patient-derived cell lines with oncogenic KRAS variants from multiple cancer types
A high-throughput screen of multi-cell type tumor spheroids was designed to identify active combinations of targeted small molecules and KRAS pathway inhibitors. Complex spheroids include a stromal component modeled by human endothelial cells (HUVEC) and fibroblasts modeled by human mesenchymal stem cells (MSCs). The concentration ranges selected for each drug and investigational agent were based upon clinically achievable concentrations if the clinical Cmax of the agent was known.
Compounds. The drugs and investigational agents: BI-3406 (NSC825286), BAY-293 (NSC824723), batoprotafib (TNO155; NSC825523), sotorasib (AMG 510; NSC818433), MRTX1257 (NSC819558), elimusertib (BAY 1895344; NSC800525), molibresib (GSK525762; NSC774829), temuterkib (LY3214996; NSC803410), venetoclax (NSC766270), alisertib (NSC759677), olaparib (NSC753686), talazoparib (NSC767125), erdafitinib (NSC781556), ipatasertib (NSC767898), cabozantinib (NSC761068), nintedanib (NSC756659), abemaciclib (NSC768073), docetaxel (NSC628503), trametinib (NSC758246), and sapanisertib (NSC764658) were obtained from the National Cancer Institute (NCI) Developmental Therapeutics Program Chemical Repository. The FDA-approved anticancer drug set is available from the Developmental Therapeutics Program. […] The stock solutions were prepared in dimethyl sulfoxide (DMSO, Sigma-Aldrich, St. Louis, MO, cat. D2650) at 800-fold the tested concentration and stored at -70 degrees C prior to their use. All drugs and investigational agents were tested over a range starting from a high concentration at or near the clinical Cmax and decreasing in half-log increments. If the clinical Cmax for an agent had not been determined, the highest concentration tested was 10 microM.
Cell Culture. All cells were maintained in an incubator at 37 degrees C and 5% CO2 with 95% humidity. The PDC lines were cultured according to standard operating procedures established by the NCI PDMR (https://pdmr.cancer.gov/sops/default.htm). Briefly, all PDCs were thawed and cultured in Matrigel-coated flasks prepared with a working solution of 1X Ham's F-12 nutrient mix, without supplementation (Invitrogen, Waltham, MA, cat. 11765054), 100 U/mL penicillin-streptomycin (Invitrogen, cat. 15140122), and 2.5% Matrigel (Corning Inc., Corning, NY, cat. 354248) for the first three passages. All PDCs were cultured in complete DMEM/F-12 media containing advanced DMEM/F-12 (Invitrogen, cat. 12634028), 4.9% defined fetal bovine serum, heat inactivated (HyClone Laboratories Inc., Logan, UT, cat. SH30070.03HI), 389 ng/mL hydrocortisone (Sigma-Aldrich, cat. H4001), 9.7 ng/mL human EGF recombinant protein (Invitrogen, cat. PHG0313), 23.4 microg/mL adenine (Sigma-Aldrich, cat. A2786), 97.3 U/mL penicillin-streptomycin (Invitrogen, cat. 15140122), 1.9 mM L-glutamine (Invitrogen, cat. 25030081), and 9.7 microM Y-27632 dihydrochloride (Tocris Bioscience, Bristol, United Kingdom, cat. 1254). The PDCs were cultured in complete DMEM/F12 media without 9.7 microM Y-27632 dihydrochloride for at least two passages prior to the screen. The established cell line HOP-62 was cultured in RPMI 1640 medium, HEPES (Invitrogen, cat. 22400105) with 10% defined fetal bovine serum (HyClone Laboratories Inc., cat. SH30070.03) and 2 mM L-glutamine (Invitrogen, cat. 25030081). The pooled donor HUVEC were cultured in endothelial cell growth medium 2 (PromoCell, Heidelberg, Germany, cat. C-22011) and the hMSC were cultured in mesenchymal stem cell growth medium 2 (PromoCell, cat. C-28009). For all experiments, HUVEC and hMSC were used at passages </=5, while the malignant cell lines were used at passages </=15. […]

[1] = second compound 0.1 µM, first compound 0.00316 µM
[2] = second compound 0.1 µM, first compound 0.01 µM
[3] = second compound 0.1 µM, first compound 0.0316 µM
[4] = second compound 0.1 µM, first compound 0.1 µM
[5] = second compound 0.1 µM, first compound 0.316 µM
[6] = second compound 0.1 µM, first compound 1 µM
[7] = second compound 0.316 µM, first compound 0.00316 µM
[8] = second compound 0.316 µM, first compound 0.01 µM
[9] = second compound 0.316 µM, first compound 0.0316 µM
[10] = second compound 0.316 µM, first compound 0.1 µM
[11] = second compound 0.316 µM, first compound 0.316 µM
[12] = second compound 0.316 µM, first compound 1 µM
[13] = second compound 1 µM, first compound 0.00316 µM
[14] = second compound 1 µM, first compound 0.01 µM
[15] = second compound 1 µM, first compound 0.0316 µM
[16] = second compound 1 µM, first compound 0.1 µM
[17] = second compound 1 µM, first compound 0.316 µM
[18] = second compound 1 µM, first compound 1 µM
[19] = second compound 3.16 µM, first compound 0.00316 µM
[20] = second compound 3.16 µM, first compound 0.01 µM
[21] = second compound 3.16 µM, first compound 0.0316 µM
[22] = second compound 3.16 µM, first compound 0.1 µM
[23] = second compound 3.16 µM, first compound 0.316 µM
[24] = second compound 3.16 µM, first compound 1 µM
[25] = second compound 10 µM, first compound 0.00316 µM
[26] = second compound 10 µM, first compound 0.01 µM
[27] = second compound 10 µM, first compound 0.0316 µM
[28] = second compound 10 µM, first compound 0.1 µM
[29] = second compound 10 µM, first compound 0.316 µM
[30] = second compound 10 µM, first compound 1 µM
[31] = second compound 0.1 µM, first compound 3.16 µM
[32] = second compound 0.1 µM, first compound 10 µM
[33] = second compound 0.316 µM, first compound 3.16 µM
[34] = second compound 0.316 µM, first compound 10 µM
[35] = second compound 1 µM, first compound 3.16 µM
[36] = second compound 1 µM, first compound 10 µM
[37] = second compound 3.16 µM, first compound 3.16 µM
[38] = second compound 3.16 µM, first compound 10 µM
[39] = second compound 10 µM, first compound 3.16 µM
[40] = second compound 10 µM, first compound 10 µM

Structure (SMILES): CCN1CCN(Cc2ccc(Nc3ncc(F)c(-c4cc(F)c5nc(C)n(C(C)C)c5c4)n3)nc2)CC1 + CNCc1ccccc1-c1csc(C(C)Nc2nc(C)nc3cc(OC)c(OC)cc23)c1
- IC50 (second compound 0.1 µM): > 1000 nM
- IC50 (second compound 0.316 µM): > 1000 nM
- IC50 (second compound 1 µM): 257 nM
- IC50 (second compound 3.16 µM): < 3.16 nM
- IC50 (second compound 10 µM): < 3.16 nM
- viability, T/C [1]: 102%
- viability, T/C [2]: 112%
- viability, T/C [3]: 95.3%
- viability, T/C [4]: 90.4%
- viability, T/C [5]: 72.6%
- viability, T/C [6]: 54.4%
- viability, T/C [7]: 108%
- viability, T/C [8]: 90.4%
- viability, T/C [9]: 81.3%
- viability, T/C [10]: 71%
- viability, T/C [11]: 71.7%
- viability, T/C [12]: 48.4%
- viability, T/C [13]: 97%
- viability, T/C [14]: 73.6%
- viability, T/C [15]: 72.9%
- viability, T/C [16]: 52.6%
- viability, T/C [17]: 51.4%
- viability, T/C [18]: 41.4%
- viability, T/C [19]: 0.39%
- viability, T/C [20]: 0.5%
- viability, T/C [21]: 0.14%
- viability, T/C [22]: 0.21%
- viability, T/C [23]: 0.17%
- viability, T/C [24]: 0.16%
- viability, T/C [25]: 0.1%
- viability, T/C [26]: 0.1%
- viability, T/C [27]: 0.1%
- viability, T/C [28]: 0.11%
- viability, T/C [29]: 0.1%
- viability, T/C [30]: 0.16%

Structure (SMILES): CC(=O)Nc1cccc(-n2c(=O)n(C3CC3)c(=O)c3c(Nc4ccc(I)cc4F)n(C)c(=O)c(C)c32)c1 + CC1OCC2(CCN(c3cnc(Sc4ccnc(N)c4Cl)c(N)n3)CC2)C1N
- IC50 (second compound 0.1 µM): 2.14 nM
- IC50 (second compound 0.316 µM): 0.877 nM
- IC50 (second compound 1 µM): 0.167 nM
- IC50 (second compound 3.16 µM): < 0.1 nM
- IC50 (second compound 10 µM): < 0.1 nM
- viability, T/C (second compound 0.1 µM, first compound 0.0001 µM): 93.8%
- viability, T/C (second compound 0.1 µM, first compound 0.000316 µM): 86.2%
- viability, T/C (second compound 0.1 µM, first compound 0.001 µM): 67.9%
- viability, T/C [1]: 41%
- viability, T/C [2]: 29.1%
- viability, T/C [3]: 28.5%
- viability, T/C (second compound 0.316 µM, first compound 0.0001 µM): 79.8%
- viability, T/C (second compound 0.316 µM, first compound 0.000316 µM): 64.2%
- viability, T/C (second compound 0.316 µM, first compound 0.001 µM): 49.8%
- viability, T/C [7]: 33.8%
- viability, T/C [8]: 22.9%
- viability, T/C [9]: 25.8%
- viability, T/C (second compound 1 µM, first compound 0.0001 µM): 55.2%
- viability, T/C (second compound 1 µM, first compound 0.000316 µM): 42.8%
- viability, T/C (second compound 1 µM, first compound 0.001 µM): 33.5%
- viability, T/C [13]: 21.5%
- viability, T/C [14]: 20.2%
- viability, T/C [15]: 21.5%
- viability, T/C (second compound 3.16 µM, first compound 0.0001 µM): 25.8%
- viability, T/C (second compound 3.16 µM, first compound 0.000316 µM): 16.9%
- viability, T/C (second compound 3.16 µM, first compound 0.001 µM): 14.4%
- viability, T/C [19]: 17.7%
- viability, T/C [20]: 15.4%
- viability, T/C [21]: 15.7%
- viability, T/C (second compound 10 µM, first compound 0.0001 µM): 20.2%
- viability, T/C (second compound 10 µM, first compound 0.000316 µM): 14.3%
- viability, T/C (second compound 10 µM, first compound 0.001 µM): 15.3%
- viability, T/C [25]: 14.2%
- viability, T/C [26]: 12.4%
- viability, T/C [27]: 13.7%

Structure (SMILES): Cn1nccc1Nc1nccc(-c2cc3c(s2)C(C)(C)N(CCN2CCOCC2)C3=O)n1 + COc1cc2nc(C)nc(NC(C)c3cc(N)cc(C(F)(F)F)c3)c2cc1OC1CCOC1
- IC50 (second compound 0.1 µM): 795 nM
- IC50 (second compound 0.316 µM): 801 nM
- IC50 (second compound 1 µM): 769 nM
- IC50 (second compound 3.16 µM): 389 nM
- IC50 (second compound 10 µM): 189 nM
- viability, T/C [3]: 107%
- viability, T/C [4]: 103%
- viability, T/C [5]: 76.2%
- viability, T/C [6]: 44.8%
- viability, T/C [31]: 25.2%
- viability, T/C [32]: 25.8%
- viability, T/C [9]: 106%
- viability, T/C [10]: 98.6%
- viability, T/C [11]: 77.9%
- viability, T/C [12]: 45%
- viability, T/C [33]: 20.6%
- viability, T/C [34]: 22.8%
- viability, T/C [15]: 101%
- viability, T/C [16]: 88.3%
- viability, T/C [17]: 67.9%
- viability, T/C [18]: 48%
- viability, T/C [35]: 22.1%
- viability, T/C [36]: 20.9%
- viability, T/C [21]: 93.8%
- viability, T/C [22]: 78.7%
- viability, T/C [23]: 54.2%
- viability, T/C [24]: 33.1%
- viability, T/C [37]: 22%
- viability, T/C [38]: 22.3%
- viability, T/C [27]: 66.7%
- viability, T/C [28]: 60.4%
- viability, T/C [29]: 41.6%
- viability, T/C [30]: 28.2%
- viability, T/C [39]: 25.1%
- viability, T/C [40]: 24%

Structure (SMILES): Cn1nccc1Nc1nccc(-c2cc3c(s2)C(C)(C)N(CCN2CCOCC2)C3=O)n1 + C=CC(=O)N1CCN(c2nc(=O)n(-c3c(C)ccnc3C(C)C)c3nc(-c4c(O)cccc4F)c(F)cc23)C(C)C1
- IC50 (second compound 0.1 µM): 153 nM
- IC50 (second compound 0.316 µM): 253 nM
- IC50 (second compound 1 µM): 153 nM
- IC50 (second compound 3.16 µM): 361 nM
- IC50 (second compound 10 µM): < 31.6 nM
- viability, T/C [3]: 63.7%
- viability, T/C [4]: 56.7%
- viability, T/C [5]: 38.6%
- viability, T/C [6]: 23.9%
- viability, T/C [31]: 16.5%
- viability, T/C [32]: 17.1%
- viability, T/C [9]: 64.5%
- viability, T/C [10]: 61.5%
- viability, T/C [11]: 47.3%
- viability, T/C [12]: 27.2%
- viability, T/C [33]: 20.4%
- viability, T/C [34]: 17%
- viability, T/C [15]: 63.7%
- viability, T/C [16]: 54.4%
- viability, T/C [17]: 41.3%
- viability, T/C [18]: 31.3%
- viability, T/C [35]: 18.4%
- viability, T/C [36]: 24.6%
- viability, T/C [21]: 50%
- viability, T/C [22]: 55%
- viability, T/C [23]: 52.1%
- viability, T/C [24]: 34%
- viability, T/C [37]: 25.2%
- viability, T/C [38]: 25%
- viability, T/C [27]: 46.1%
- viability, T/C [28]: 41.5%
- viability, T/C [29]: 33.8%
- viability, T/C [30]: 28.2%
- viability, T/C [39]: 27.6%
- viability, T/C [40]: 34.4%
